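Each compound was tested at five concentrations against cells in 96-well plates for 48 hours. GI50 is the concentration that inhibits growth by half. TGI denotes the concentration required for complete inhibition of growth.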

What all share (assay): NCI-60 cell line screen, 48 h
Assay [1] has as its system MOLT-4 leukemia.
For assay [2], the system named is HCC-2998 colon.
For assay [3], the system named is NCI-H460 lung.
Assay [4] deals with OVCAR-5 ovarian.
In assay [5] the test system is IGROV1 ovarian.
The test system of assay [6] is CAKI-1 renal.
The test system of assay [7] is SK-OV-3 ovarian.
In assay [8] the test system is SF-539 CNS.
Assay [9] has as its system A549 NSCLC.
Assay [10] concerns MALME-3M melanoma.

With `CCOc1ccc(/C=C2\NC(=S)N(/C=C3\C(=O)Oc4ccccc4C3=O)C2=O)cc1`, the TGI in assay [1] was 51.2 µM; in assay [2], over 100 µM; in [3] it was 51.8 µM; in [4] it was over 100 µM; in assay [5], 61.7 µM; in assay [6] it was 53.5 µM. Further, the TGI stood at 38.8 µM in [7] and 36.5 µM in assay [8].
Take `CCc1ccc2nccc(NCCCN(C)C)c2c1[N+](=O)[O-]`: the TGI in assay [1] is over 100 µM; in assay [2], over 100 µM; in assay [3], over 100 µM; in assay [4], 90.8 µM; in assay [5] it was over 100 µM; in assay [6], over 100 µM. Moreover, the TGI in assay [9], in assay [7] and in assay [10] was over 100 µM each time.
Consider `O=C1C(=O)N(c2nccs2)C(=O)C(=O)C1c1nc2ccccc2s1`, for which the TGI in assay [2], in [3], in [4], in assay [5], in [6] and in [9] was over 100 µM each time. In addition, the TGI in assay [7], in assay [10] and in assay [8] was over 100 µM each time.
Take `COc1nc2c(nc(N)n2C2OCC(O)C(O)C2O)c(=O)n1C` (stereo not given): the TGI in [1], in assay [2], in [3], in [5], in [6] and in assay [9] was over 100 µM in each case. In addition, the TGI in assay [7], in [10] and in [8] was over 100 µM in each case.
Consider `CC1(C(=O)O)CCOc2ccccc21` (stereo not given), for which the TGI in [1], in [2], in [3], in [4], in assay [5] and in assay [6] was over 100 µM in each case. Besides, the TGI in assay [9], in assay [10] and in assay [8] was over 100 µM in each case.
`COc1cc(/C=C\c2ccc(Br)cc2)cc(OC)c1OC`: the TGI in assay [1] is 0.326 µM; in assay [2] it was 26.8 µM; in [4], 96.8 µM; in [5] it was over 100 µM; in [6] it was 18.5 µM; in assay [9] it was over 100 µM. Moreover, the TGI in assay [7] was over 100 µM; in assay [10] it was 34.8 µM; in [8], 0.00366 µM. Besides, the GI50 in [2] is 0.0192 µM.
Consider `COC12CCC(C(C(=O)c3ccccc3)=C1C(=O)c1ccccc1)C(O)C2` (stereo not given), for which the TGI in [1], in assay [2], in assay [5], in assay [6], in assay [9] and in assay [7] was over 100 µM each time. For the same compound, the TGI in assay [10] and in assay [8] was over 100 µM each time.
With `O=C(Nc1nc2ccc([N+](=O)[O-])cc2s1)C(=O)C(C(=O)c1ccncc1)C1OC(=O)c2ccccc21` (stereo not given), the TGI in assay [1], in assay [2], in assay [4], in assay [5], in assay [6] and in [9] was over 100 µM throughout. Further, the TGI in assay [10] is over 100 µM.
Regarding `CC(NC(=O)C(=O)N/N=C1\C[C@@H](c2ccccc2)Nc2ccccc21)c1ccccc1` (stereo not given in full), the TGI in assay [2] was over 100 µM; in [3], over 100 µM; in assay [4] it was over 100 µM; in assay [6], over 100 µM; in [9], over 100 µM; in assay [10], 99.6 µM. Also, the TGI in assay [8] was over 100 µM.
For the compound `O=C(N/C(=C\c1ccc(/C=C(\NC(=O)c2ccccc2)c2nc3ccccc3s2)cc1)c1nc2ccccc2s1)c1ccccc1`, the TGI in assay [1] came out at 26.7 µM; in assay [2] it was 27.8 µM; in [3], 14.6 µM; in assay [4], 31 µM; in assay [5] it was 18.6 µM; in assay [6], 28 µM. Besides, the TGI in assay [9] worked out at 35.2 µM; in assay [10], 25.2 µM; in assay [8] it was 4.61 µM.
Take `COc1cc2c3c(n(CCCBr)c(=O)c2cc1OC)-c1ccc(F)cc1C3=O`: the GI50 is 2.89 µM in [1]; 13.7 µM in assay [2]; 2.38 µM in [3]; 50 µM in assay [4]; 7.9 µM in assay [6]; 36.8 µM in assay [9]. The GI50 is 15.8 µM in assay [7], 43 µM in assay [10] and 3.54 µM in assay [8]. In addition, the TGI was 10.6 µM in assay [1]; over 100 µM in [2]; 47.2 µM in [3]; over 100 µM in assay [4]; 33.7 µM in assay [6]; over 100 µM in assay [9]. For the same compound, the TGI in assay [7] is 59 µM; in assay [10], over 100 µM; in assay [8], 15.2 µM.
As for `NS(=O)(=O)c1ccc(-n2ncc3c(Nc4ccccc4)ncnc32)cc1`, the GI50 in assay [1] was 14.5 µM; in assay [2], 16.6 µM; in assay [3], 14.9 µM; in [4], 34.9 µM; in assay [6], 23.7 µM; in assay [9], 14.3 µM. Further, the GI50 in assay [7] is 99.8 µM; in assay [10], 33 µM; in assay [8] it was 36.2 µM. The TGI in assay [1] is 61.4 µM; in [2], 57.7 µM; in assay [3], over 100 µM; in assay [4], over 100 µM; in assay [6] it was over 100 µM; in [9], over 100 µM. In addition, the TGI in assay [7], in assay [10] and in assay [8] was over 100 µM each time.
Regarding `COc1ccc(-c2ccc(-c3ccc(C(=N)N)cn3)o2)cc1Cl`, the GI50 is 1.88 µM in assay [2]; 1.89 µM in assay [3]; 1.74 µM in assay [4]; 1.86 µM in assay [5]; 6.57 µM in assay [6]; 2.59 µM in assay [9]. Besides, the figures for the GI50 in assay [7], in [10] and in assay [8] were 10.6 µM, 1.81 µM and 1.68 µM, respectively. Moreover, the TGI in [2] was found to be 3.38 µM; in [3], 3.63 µM; in assay [4], 3.38 µM; in assay [5], 3.63 µM; in assay [6] it was 19.8 µM; in [9] it was 6.56 µM. For the same compound, the TGI in assay [7] turned out to be 22.8 µM; in assay [10], 3.48 µM; in assay [8], 3.14 µM.
Regarding `O=C1c2ccccc2-c2c1c1ccc([N+](=O)[O-])cc1c(=O)n2CCCNCCO`, the GI50 in assay [1] was 0.0374 µM; in assay [2], 0.817 µM; in [3], 0.025 µM; in assay [4], 0.52 µM; in [5] it was 0.515 µM; in assay [6] it was 0.126 µM. The figures for the GI50 in assay [9], in assay [7] and in assay [10] were 0.946 µM, 0.525 µM and 0.341 µM, respectively. Also, the TGI in assay [1] stood at 1.4 µM; in assay [2], 2.13 µM; in assay [3], 0.343 µM; in assay [4] it was 1.92 µM; in assay [5] it was 2.45 µM; in assay [6] it was 1.81 µM. Also, the values for the TGI in assay [9], in assay [7] and in [10] were 8.75 µM, 2.56 µM and 1.62 µM, respectively.
As to `O=S(=O)(NC1=NCCN1C(=S)SN1CCn2c1nsc2=S)c1ccccc1Cl`, the GI50 in assay [1] was 2.02 µM; in assay [2], 15.9 µM; in [4] it was 12.2 µM; in [5], 34.8 µM; in assay [6], 12.3 µM; in [9], 32.5 µM. In addition, the values for the GI50 in assay [7], in assay [10] and in assay [8] were 57 µM, 12.5 µM and 12.9 µM, respectively. Besides, the TGI in [1] was 14.1 µM; in assay [2], 29.5 µM; in assay [4] it was 27.7 µM; in assay [5], over 100 µM; in assay [6], 41.6 µM; in assay [9] it was over 100 µM. Moreover, the TGI was over 100 µM in assay [7], 67.5 µM in assay [10] and 31.5 µM in assay [8].
As for `CNC1=C(C(=O)OC)SC(c2ccccc2)(c2ccccc2)SC1`, the GI50 in [1] is 7.56 µM; in assay [2], 13.1 µM; in [3] it was 16.9 µM; in assay [4] it was over 100 µM; in assay [6], 44.1 µM; in assay [9], 9.63 µM. The GI50 is 71.1 µM in assay [7] and 26.3 µM in [8]. The TGI in assay [1], in [2], in assay [3], in assay [4], in assay [6] and in [9] was over 100 µM in each case. Moreover, the TGI in assay [7] and in assay [8] was over 100 µM throughout.
For `CN(C)CCSCCO`, the TGI in [2], in assay [3], in [4], in [5], in assay [6] and in assay [9] was over 100 µM throughout. Besides, the TGI in [7], in assay [10] and in [8] was over 100 µM each time.
With `O=C(NC1C2CC3CC(C2)CC1C3)/C(Cl)=C1/Sc2ccccc2NC1=O` (stereo not given), the TGI in assay [1], in assay [2], in assay [3], in assay [4], in [5] and in [6] was over 100 µM in each case. For the same compound, the TGI in [9], in assay [10] and in assay [8] was over 100 µM in each case.
On to `CC1CCCc2c1c1ccc3c(O)cccc3c1oc2=O` (stereo not given), for which the TGI in assay [1], in [2], in [3], in assay [4], in [5] and in [6] was over 100 µM in each case. Moreover, the figures for the TGI in [9], in assay [7] and in [10] were over 100 µM, 61.6 µM and over 100 µM, respectively.
As to `COc1ccc2c(CCNC(=O)/C=C/c3ccccc3)c(C(C)=O)[nH]c2c1[N+](=O)[O-]`, the TGI is over 100 µM in [1]; over 100 µM in assay [2]; over 100 µM in assay [3]; 56.2 µM in assay [5]; 44.5 µM in assay [6]; over 100 µM in assay [9]. Moreover, the TGI in assay [8] worked out at 61 µM.
Regarding `N#C/C(=C\c1c(-c2ccccc2)[nH]c2ccccc12)C(=O)c1ccccc1`, the GI50 is 14.5 µM in [2]; 4.52 µM in assay [3]; over 100 µM in [4]; 2.53 µM in assay [5]; 2.45 µM in assay [6]; 7.55 µM in [9]. The figures for the GI50 in assay [7], in assay [10] and in assay [8] were 15.2 µM, 12.3 µM and 6.03 µM, respectively. For the same compound, the TGI in [2] is over 100 µM; in assay [3] it was over 100 µM; in assay [4] it was over 100 µM; in [5] it was 24.2 µM; in assay [6] it was over 100 µM; in [9] it was over 100 µM. Besides, the TGI is over 100 µM in assay [7], over 100 µM in [10] and 43.9 µM in assay [8].
On to `Cn1c(=O)c(C(=O)NC(=O)NCCCCCOC(=O)CCCCCCCCCCC(=O)OCCCCCNC(=O)NC(=O)c2cn(Cc3ccccc3)c(=O)n(C)c2=O)cn(Cc2ccccc2)c1=O`, for which the TGI in assay [2], in assay [3], in [4], in [5], in [6] and in assay [9] was over 100 µM each time. Besides, the TGI in [7], in assay [10] and in assay [8] was over 100 µM in each case.
Consider `CC(=O)OC(C)c1cc2c(s1)C(=O)c1c(C(C)OC(C)=O)csc1C2=O` (stereo not given), for which the TGI was found to be 5.08 µM in assay [1]; 3.1 µM in [2]; 1.58 µM in assay [3]; 3.41 µM in assay [4]; 3.28 µM in assay [5]; 4.52 µM in assay [9]. Further, the TGI was 13.8 µM in [7], 0.412 µM in [10] and 2.36 µM in assay [8]. Moreover, the GI50 in assay [10] was 0.186 µM.
In the case of `NCc1c(C(N)=O)ncn1Cc1ccccc1`, the TGI in assay [1], in assay [2], in assay [3], in assay [5], in [6] and in assay [9] was over 100 µM in each case. Besides, the TGI in assay [7] and in [8] was over 100 µM each time.

The values are drawn from PubChem BioAssay (NCI).
